From patent US10906873B2, “Substituted cyclic amides as herbicides” (FMC Corporation, priority 2015, dated 2021)

Tested on: barnyardgrass (Echinochloa crus-galli)
Assay: Test A preemergence, barnyardgrass
Format: in vivo
Details: 125 g ai/ha, 0 to 100 scale
Source text: (§1) Seeds of plant species selected from barnyardgrass (Echinochloa crus-galli), crabgrass (large crabgrass, Digitaria sanguinalis), kochia (Kochia scoparia), ragweed (common ragweed, Ambrosia elatior), morningglory (Ipomoea spp.), velvetleaf (Abutilon theophrasti), ryegrass, It. (Italian ryegrass, Lolium multiflorum), foxtail, giant (giant foxtail, Setaria faberii), wheat (Triticum aestivum), corn (Zea mays), and pigweed (Amaranthus retroflexus), were planted into a blend of loam soil and sand and treated preemergence with a directed soil spray using test chemicals formulated in a non-phytotoxic solvent mixture which included a surfactant. At the same time, plants selected from these crop and weed species and also blackgrass (Alopecurus myosuroides), and galium (catchweed bedstraw, Galium aparine), were planted in pots containing the same blend of loam soil and sand and treated with postemergence applications of test chemicals formulated in the same manner. Plants ranged in height from 2 to 10 cm and were in the one- to two-leaf stage for the postemergence treatment. Treated plants and untreated controls were maintained in a greenhouse for approximately 10 d, after which time all treated plants were compared to untreated controls and visually evaluated for injury. Plant response ratings, summarized in Table A, are based on a 0 to 100 scale where 0 is no effect and 100 is complete control. A dash (-) response means no test result.

Question: With `O=C(CCC1CNC(=O)C1C(=O)Nc1ccccc1F)Nc1ccc(F)cc1` (stereo not drawn) [Compound 15] as the molecule, how does the “Plant response rating, Barnyardgrass” value read?
Answer: 0

Same assay, conditions: 500 g ai/ha, 0 to 100 scale

Question: `O=C(CCC1CNC(=O)C1C(=O)Nc1ccccc1F)Nc1ccc(F)cc1` (stereo not drawn) [Compound 15] was tested. Which “Plant response rating, Barnyardgrass” value did it give?
Answer: 0

Tested on: kochia (Kochia scoparia)
Assay: Test A preemergence, kochia
Format: in vivo
Details: 125 g ai/ha, 0 to 100 scale
Source text: as §1

Question: How did the “Plant response rating, Kochia” value turn out when `O=C(CCC1CNC(=O)C1C(=O)Nc1ccccc1F)Nc1ccc(F)cc1` (stereo not drawn) [Compound 15] was run?
Answer: 0

Same assay, conditions: 500 g ai/ha, 0 to 100 scale

Question: With `O=C(CCC1CNC(=O)C1C(=O)Nc1ccccc1F)Nc1ccc(F)cc1` (stereo not drawn) [Compound 15] as the molecule, how does the “Plant response rating, Kochia” value read?
Answer: 0

Tested on: ragweed (common ragweed, Ambrosia elatior)
Assay: Test A preemergence, ragweed
Format: in vivo
Details: 125 g ai/ha, 0 to 100 scale
Source text: as §1

Question: How did the “Plant response rating, Ragweed” value turn out when `O=C(CCC1CNC(=O)C1C(=O)Nc1ccccc1F)Nc1ccc(F)cc1` (stereo not drawn) [Compound 15] was run?
Answer: 0

Same assay, conditions: 500 g ai/ha, 0 to 100 scale

Question: For `O=C(CCC1CNC(=O)C1C(=O)Nc1ccccc1F)Nc1ccc(F)cc1` (stereo not drawn) [Compound 15], which “Plant response rating, Ragweed” value is on record?
Answer: 0

Tested on: ryegrass, It. (Italian ryegrass, Lolium multiflorum)
Assay: Test A preemergence, ryegrass, It.
Format: in vivo
Details: 125 g ai/ha, 0 to 100 scale
Source text: as §1

Question: `O=C(CCC1CNC(=O)C1C(=O)Nc1ccccc1F)Nc1ccc(F)cc1` (stereo not drawn) [Compound 15] was tested. Which “Plant response rating, Ryegrass, It.” value did it give?
Answer: 0

Same assay, conditions: 500 g ai/ha, 0 to 100 scale

Question: Which “Plant response rating, Ryegrass, It.” value does the source give for `O=C(CCC1CNC(=O)C1C(=O)Nc1ccccc1F)Nc1ccc(F)cc1` (stereo not drawn) [Compound 15] here?
Answer: 0

Tested on: foxtail, giant (giant foxtail, Setaria faberii)
Assay: Test A preemergence, foxtail, giant
Format: in vivo
Details: 125 g ai/ha, 0 to 100 scale
Source text: as §1

Question: For `O=C(CCC1CNC(=O)C1C(=O)Nc1ccccc1F)Nc1ccc(F)cc1` (stereo not drawn) [Compound 15], which “Plant response rating, Foxtail, Giant” value is on record?
Answer: 0

Same assay, conditions: 500 g ai/ha, 0 to 100 scale

Question: With `O=C(CCC1CNC(=O)C1C(=O)Nc1ccccc1F)Nc1ccc(F)cc1` (stereo not drawn) [Compound 15] as the molecule, how does the “Plant response rating, Foxtail, Giant” value read?
Answer: 0

Tested on: pigweed (Amaranthus retroflexus)
Assay: Test A preemergence, pigweed
Format: in vivo
Details: 125 g ai/ha, 0 to 100 scale
Source text: as §1

Question: `O=C(CCC1CNC(=O)C1C(=O)Nc1ccccc1F)Nc1ccc(F)cc1` (stereo not drawn) [Compound 15] was tested. Which “Plant response rating, Pigweed” value did it give?
Answer: 0

Same assay, conditions: 500 g ai/ha, 0 to 100 scale

Question: For `O=C(CCC1CNC(=O)C1C(=O)Nc1ccccc1F)Nc1ccc(F)cc1` (stereo not drawn) [Compound 15], which “Plant response rating, Pigweed” value is on record?
Answer: 0

Tested on: barnyardgrass (Echinochloa crus-galli)
Assay: Test A postemergence, barnyardgrass
Format: in vivo
Details: 125 g ai/ha, 0 to 100 scale
Source text: as §1

Question: With `O=C(CCC1CNC(=O)C1C(=O)Nc1ccccc1F)Nc1ccc(F)cc1` (stereo not drawn) [Compound 15] as the molecule, how does the “Plant response rating, Barnyardgrass” value read?
Answer: 0

Same assay, conditions: 500 g ai/ha, 0 to 100 scale

Question: For `O=C(CCC1CNC(=O)C1C(=O)Nc1ccccc1F)Nc1ccc(F)cc1` (stereo not drawn) [Compound 15], which “Plant response rating, Barnyardgrass” value is on record?
Answer: 0

Tested on: kochia (Kochia scoparia)
Assay: Test A postemergence, kochia
Format: in vivo
Details: 125 g ai/ha, 0 to 100 scale
Source text: as §1

Question: How did the “Plant response rating, Kochia” value turn out when `O=C(CCC1CNC(=O)C1C(=O)Nc1ccccc1F)Nc1ccc(F)cc1` (stereo not drawn) [Compound 15] was run?
Answer: 0

Same assay, conditions: 500 g ai/ha, 0 to 100 scale

Question: With `O=C(CCC1CNC(=O)C1C(=O)Nc1ccccc1F)Nc1ccc(F)cc1` (stereo not drawn) [Compound 15] as the molecule, how does the “Plant response rating, Kochia” value read?
Answer: 0

Tested on: ragweed (common ragweed, Ambrosia elatior)
Assay: Test A postemergence, ragweed
Format: in vivo
Details: 125 g ai/ha, 0 to 100 scale
Source text: as §1

Question: Which “Plant response rating, Ragweed” value does the source give for `O=C(CCC1CNC(=O)C1C(=O)Nc1ccccc1F)Nc1ccc(F)cc1` (stereo not drawn) [Compound 15] here?
Answer: 0

Same assay, conditions: 500 g ai/ha, 0 to 100 scale

Question: For `O=C(CCC1CNC(=O)C1C(=O)Nc1ccccc1F)Nc1ccc(F)cc1` (stereo not drawn) [Compound 15], which “Plant response rating, Ragweed” value is on record?
Answer: 0

Tested on: ryegrass, It. (Italian ryegrass, Lolium multiflorum)
Assay: Test A postemergence, ryegrass, It.
Format: in vivo
Details: 125 g ai/ha, 0 to 100 scale
Source text: as §1

Question: How did the “Plant response rating, Ryegrass, It.” value turn out when `O=C(CCC1CNC(=O)C1C(=O)Nc1ccccc1F)Nc1ccc(F)cc1` (stereo not drawn) [Compound 15] was run?
Answer: 0

Same assay, conditions: 500 g ai/ha, 0 to 100 scale

Question: How did the “Plant response rating, Ryegrass, It.” value turn out when `O=C(CCC1CNC(=O)C1C(=O)Nc1ccccc1F)Nc1ccc(F)cc1` (stereo not drawn) [Compound 15] was run?
Answer: 0

Tested on: foxtail, giant (giant foxtail, Setaria faberii)
Assay: Test A postemergence, foxtail, giant
Format: in vivo
Details: 125 g ai/ha, 0 to 100 scale
Source text: as §1

Question: For `O=C(CCC1CNC(=O)C1C(=O)Nc1ccccc1F)Nc1ccc(F)cc1` (stereo not drawn) [Compound 15], which “Plant response rating, Foxtail, Giant” value is on record?
Answer: 0

Same assay, conditions: 500 g ai/ha, 0 to 100 scale

Question: `O=C(CCC1CNC(=O)C1C(=O)Nc1ccccc1F)Nc1ccc(F)cc1` (stereo not drawn) [Compound 15] was tested. Which “Plant response rating, Foxtail, Giant” value did it give?
Answer: 0

Tested on: wheat (Triticum aestivum)
Assay: Test A postemergence, wheat
Format: in vivo
Details: 125 g ai/ha, 0 to 100 scale
Source text: as §1

Question: How did the “Plant response rating, Wheat” value turn out when `O=C(CCC1CNC(=O)C1C(=O)Nc1ccccc1F)Nc1ccc(F)cc1` (stereo not drawn) [Compound 15] was run?
Answer: 0

Same assay, conditions: 500 g ai/ha, 0 to 100 scale

Question: How did the “Plant response rating, Wheat” value turn out when `O=C(CCC1CNC(=O)C1C(=O)Nc1ccccc1F)Nc1ccc(F)cc1` (stereo not drawn) [Compound 15] was run?
Answer: 0

Tested on: corn (Zea mays)
Assay: Test A postemergence, corn
Format: in vivo
Details: 125 g ai/ha, 0 to 100 scale
Source text: as §1

Question: How did the “Plant response rating, Corn” value turn out when `O=C(CCC1CNC(=O)C1C(=O)Nc1ccccc1F)Nc1ccc(F)cc1` (stereo not drawn) [Compound 15] was run?
Answer: 0

Same assay, conditions: 500 g ai/ha, 0 to 100 scale

Question: How did the “Plant response rating, Corn” value turn out when `O=C(CCC1CNC(=O)C1C(=O)Nc1ccccc1F)Nc1ccc(F)cc1` (stereo not drawn) [Compound 15] was run?
Answer: 0

Tested on: pigweed (Amaranthus retroflexus)
Assay: Test A postemergence, pigweed
Format: in vivo
Details: 125 g ai/ha, 0 to 100 scale
Source text: as §1

Question: `O=C(CCC1CNC(=O)C1C(=O)Nc1ccccc1F)Nc1ccc(F)cc1` (stereo not drawn) [Compound 15] was tested. Which “Plant response rating, Pigweed” value did it give?
Answer: 0

Same assay, conditions: 500 g ai/ha, 0 to 100 scale

Question: Which “Plant response rating, Pigweed” value does the source give for `O=C(CCC1CNC(=O)C1C(=O)Nc1ccccc1F)Nc1ccc(F)cc1` (stereo not drawn) [Compound 15] here?
Answer: 0

Tested on: blackgrass (Alopecurus myosuroides)
Assay: Test A postemergence, blackgrass
Format: in vivo
Details: 125 g ai/ha, 0 to 100 scale
Source text: as §1

Question: Which “Plant response rating, Blackgrass” value does the source give for `O=C(CCC1CNC(=O)C1C(=O)Nc1ccccc1F)Nc1ccc(F)cc1` (stereo not drawn) [Compound 15] here?
Answer: 0

Same assay, conditions: 500 g ai/ha, 0 to 100 scale

Question: For `O=C(CCC1CNC(=O)C1C(=O)Nc1ccccc1F)Nc1ccc(F)cc1` (stereo not drawn) [Compound 15], which “Plant response rating, Blackgrass” value is on record?
Answer: 0

Tested on: galium (catchweed bedstraw, Galium aparine)
Assay: Test A postemergence, galium
Format: in vivo
Details: 125 g ai/ha, 0 to 100 scale
Source text: as §1

Question: Which “Plant response rating, Galium” value does the source give for `O=C(CCC1CNC(=O)C1C(=O)Nc1ccccc1F)Nc1ccc(F)cc1` (stereo not drawn) [Compound 15] here?
Answer: 0

Same assay, conditions: 500 g ai/ha, 0 to 100 scale

Question: How did the “Plant response rating, Galium” value turn out when `O=C(CCC1CNC(=O)C1C(=O)Nc1ccccc1F)Nc1ccc(F)cc1` (stereo not drawn) [Compound 15] was run?
Answer: 0

Tested on: barnyardgrass (Echinochloa crus-galli)
Assay: Test B flooded paddy test, barnyardgrass
Format: in vivo
Details: Flood, 500 g ai/ha; scale of 0 to 100 where 0 is no effect and 100 is complete control; 13 to 15 d
Description: (§2) Plant species in the flooded paddy test selected from rice (Oryza sativa), sedge, umbrella (small-flower umbrella sedge, Cyperus difformis), ducksalad (Heteranthera limosa), and barnyardgrass (Echinochloa crus-galli) were grown to the 2-leaf stage for testing. At time of treatment, test pots were flooded to 3 cm above the soil surface, treated by application of test compounds directly to the paddy water, and then maintained at that water depth for the duration of the test. Treated plants and controls were maintained in a greenhouse for 13 to 15 d, after which time all species were compared to controls and visually evaluated. Plant response ratings, summarized in Table B, are based on a scale of 0 to 100 where 0 is no effect and 100 is complete control. A dash (-) response means no test result.

Question: How did the “Plant response rating, Barnyardgrass” value turn out when `O=C(CCC1CNC(=O)C1C(=O)Nc1ccccc1F)Nc1ccc(F)cc1` (stereo not drawn) [Compound 15] was run?
Answer: 0

Tested on: ducksalad (Heteranthera limosa)
Assay: Test B flooded paddy test, ducksalad
Format: in vivo
Details: Flood, 500 g ai/ha; scale of 0 to 100 where 0 is no effect and 100 is complete control; 13 to 15 d
Description: as §2

Question: With `O=C(CCC1CNC(=O)C1C(=O)Nc1ccccc1F)Nc1ccc(F)cc1` (stereo not drawn) [Compound 15] as the molecule, how does the “Plant response rating, Ducksalad” value read?
Answer: 70

Tested on: rice (Oryza sativa)
Assay: Test B flooded paddy test, rice
Format: in vivo
Details: Flood, 500 g ai/ha; scale of 0 to 100 where 0 is no effect and 100 is complete control; 13 to 15 d
Description: as §2

Question: For `O=C(CCC1CNC(=O)C1C(=O)Nc1ccccc1F)Nc1ccc(F)cc1` (stereo not drawn) [Compound 15], which “Plant response rating, Rice” value is on record?
Answer: 0

Tested on: sedge, umbrella (small-flower umbrella sedge, Cyperus difformis)
Assay: Test B flooded paddy test, sedge, umbrella
Format: in vivo
Details: Flood, 500 g ai/ha; scale of 0 to 100 where 0 is no effect and 100 is complete control; 13 to 15 d
Description: as §2

Question: With `O=C(CCC1CNC(=O)C1C(=O)Nc1ccccc1F)Nc1ccc(F)cc1` (stereo not drawn) [Compound 15] as the molecule, how does the “Plant response rating, Sedge, Umbrella” value read?
Answer: 0
